This test is described as follows: 3H-Thymidine Incorporation Assay (24 hr drug, wash, another 48 hr; 72 hr assay). In kind it is cell-based. The conditions noted are these: for Factor (Resistance Factor = Ratio of dCK- on Wild-type CCRF-CEM): ratio of IC50 CEM/dCK- to IC50 CCRF-CEM, 24 h exposure. Background: Incorporation of labelled thymidine or its analogues reports DNA synthesis.

Results on 20 compounds are retold here after patent US20050256034A1, “Dioxolane analogs for improved inter-cellular delivery” (priority 2000, published 2005).

`O=C(NCc1ccccc1)Nc1ccn([C@@H]2CO[C@H](COC(=O)NCc3ccccc3)O2)c(=O)n1` [Compound 109, BENZYL-CARBAMIC ACID 4-[4-(3-BEN- ZYL-UREIDO)-2-OX- O-2#H!-PYRIMIDIN-1-YL]-[1,3]DI- OXOLAN-2-YLMETHYL ESTER]: the “Factor (Resistance Factor = Ratio of dCK- on Wild-type CCRF-CEM)” value is given as more than 100.

With `Nc1ccn([C@@H]2CO[C@H](COC(=O)C34CC5CC(CC(C5)C3)C4)O2)c(=O)n1` [Compound 110, ADAMANTANE-1-CARBOXYLIC ACID 4-(4-AMINO-2-OXO-2H-PYRI- MIDIN-1-YL)-[1,3]DI- OXOLAN-2-YLMETHYL ESTER], the “Factor (Resistance Factor = Ratio of dCK- on Wild-type CCRF-CEM)” value is 3 307.

As to `CC(C)(C)OC(=O)N(CCCCC(=O)OC[C@H]1OC[C@@H](n2ccc(N)nc2=O)O1)Cc1ccccc1` [Compound 111, 5-(BENZYL-TERT-BUTOXY- CARBONYL-AMINO)-PENTANOIC ACID 4-(4-A- MINO-2-OXO-2H-PYRI- MIDIN-1-YL)-[1,3]DI- OXOLAN-2-YLMETHYL ESTER], the “Factor (Resistance Factor = Ratio of dCK- on Wild-type CCRF-CEM)” value worked out at 13000.

`COc1cc2c(cc1OC)C(=O)/C(=C/c1cc(C)c(OC(=O)OC[C@H]3OC[C@@H](n4ccc(N)nc4=O)O3)c(C)c1)C2` [Compound 112, CARBONIC ACID 4(S)-(4′-A- MINO-2′-OXO-2H-PYRI- MIDIN-1′-YL)-[1,3]DI- OXOLAN-2(S)-YL- METHYL ESTER 4-(5″,6″-DI- METHOXY-1″-OXO-IN- DAN-2″-YLIDENE- METHYL)-2,6-DI- METHYL-PHENYL ESTER]: the “Factor (Resistance Factor = Ratio of dCK- on Wild-type CCRF-CEM)” value was 10. Also, the IC50 (CCRF-CEM, read-out: IC50 in μM (3H-TdR incorporation at 72 hr) CEM/dCK- 24 h, CEM/dCK- (CCRF-CEM deoxycytidine kinase-deficient), 24 h exposure to drug, wash, another 48 hr) was determined as 0.057 µM.

In the case of `COC1(OC[C@H]2OC[C@@H](n3ccc(N)nc3=O)O2)CCCCC1` [Compound 113, 4-AMINO-1-([2-(1-METH- OXY-CYCLO- HEXYLOXYMETHYL)-[1,3]DI- OXOLAN-4-YL]-1H-PYRI- MIDIN-2-ONE], the “Factor (Resistance Factor = Ratio of dCK- on Wild-type CCRF-CEM)” value is >1 667.

Regarding `CC(C)(C)OC(=O)N(CCCCC(=O)Nc1ccn([C@@H]2CO[C@H](COC(=O)CCCCN(Cc3ccccc3)C(=O)OC(C)(C)C)O2)c(=O)n1)Cc1ccccc1` [Compound 114, 5-(BENZYL-TERT-BUTOXY- CARBONYL-AMINO)-PENTANOIC ACID 4-{4-[5-(BENZYL-TERT-BUTOXY- CARBONYL-AMINO)-PENTANOYL- AMINO]-2-OXO-2H!PYRI- MIDIN-1-YL)-[1,3]DI- OXOLAN-2-YLMETHYL ESTER], the “Factor (Resistance Factor = Ratio of dCK- on Wild-type CCRF-CEM)” value stood at 500.

With `CC(C)(C)OC(=O)N(CCCCC(=O)Nc1ccn([C@@H]2CO[C@H](CO)O2)c(=O)n1)Cc1ccccc1` [Compound 115, BENZYL-{4-[1-(2-HYDROXY- METHYL-[1,3]DI- OXOLAN-4-YL)-2-OX- O-1,2-DIHYDRO-PYRI- MIDIN-4-YLCARBA- MOYL]-BUTYL}-CARBAMIC ACID TERT!-BUTYL ESTER], the “Factor (Resistance Factor = Ratio of dCK- on Wild-type CCRF-CEM)” value is listed as more than 500.

Regarding `COc1ccc(OC(=O)OC[C@H]2OC[C@@H](n3ccc(N)nc3=O)O2)cc1` [Compound 118, CARBONIC ACID 4-(4-A- MINO-2-OXO-2H-PYRI- MIDIN-1-YL)-[1,3]DI- OXOLAN-2-YLMETHYL ESTER 4-METHOXY-PHENYL ESTER], the “Factor (Resistance Factor = Ratio of dCK- on Wild-type CCRF-CEM)” value is listed as >3 571.

For `CCCCCCNC(=O)Nc1ccn([C@@H]2CO[C@H](COC(=O)NCCCCCC)O2)c(=O)n1` [Compound 119, HEXYL-CARBAMIC ACID 4-[4-(3-HEX- YL-UREIDO)-2-OX- O-2#H!-PYRIMIDIN-1-YL]-[1,3]DI- OXOLAN-2-YLMETHYL ESTER], the “Factor (Resistance Factor = Ratio of dCK- on Wild-type CCRF-CEM)” value is “˜2”.

For the compound `CCCCCCNC(=O)Nc1ccn([C@@H]2CO[C@H](CO)O2)c(=O)n1` [Compound 120, 1-HEXYL-3-[1-(2-HY- DROXYMETHYL-[1,3]DI- OXOLAN-4-YL)-2-OX- O-1,2-DIHYDRO-PYRI- MIDIN-4-YL]-UREA], the “Factor (Resistance Factor = Ratio of dCK- on Wild-type CCRF-CEM)” value is reported as 1.

For the compound `CCCCCCNC(=O)OC[C@H]1OC[C@@H](n2ccc(N)nc2=O)O1` [Compound 121, HEXYL-CARBAMIC ACID 4-(4-A- MINO-2-OXO-2H-PYRI- MIDIN-1-YL)-[1,3]DI- OXOLAN-2-YLMETHYL ESTER], the “Factor (Resistance Factor = Ratio of dCK- on Wild-type CCRF-CEM)” value is recorded as more than 6.

Take `CCCCCCOC(=O)OC[C@H]1OC[C@@H](n2ccc(NC(=O)OCc3ccccc3)nc2=O)O1` [Compound 122, CARBONIC ACID 4-(4-BENZYLOXY- CARBONYLAMINO-2-OX- O-2H-PYRIMIDIN-1-YL)-[1,3]DI- OXOLAN-2-YLMETHYL ESTER HEXYL ESTER]: the “Factor (Resistance Factor = Ratio of dCK- on Wild-type CCRF-CEM)” value was 86.

For the compound `COc1ccc(C(OC[C@H]2OC[C@@H](n3ccc(N)nc3=O)O2)(c2ccccc2)c2ccc(OC)cc2)cc1` [Compound 123, 4-AMINO-1-{2-[BIS-(4-METH- OXY-PHENYL)-PHENYL-METH- OXYMETHYL]-[1,3]DI- OXOLAN-4-YL)-1H-PYRI- MIDIN-2-ONE], the “Factor (Resistance Factor = Ratio of dCK- on Wild-type CCRF-CEM)” value amounted to 17.

For the compound `CC(C)c1ccc(NC(=O)OC[C@H]2OC[C@@H](n3ccc(NC(=O)OCc4ccccc4)nc3=O)O2)cc1` [Compound 124, (1-[2-(4-ISOPROPYL-PHENYL- CARBAMOYLOXYMETHYL)-[1,3]DI- OXOLAN-4-YL]-2-OX- O-1,2-DIHYDRO-PYRI- MIDIN-4-YL}-CARBAMIC ACID BENZYL ESTER], the “Factor (Resistance Factor = Ratio of dCK- on Wild-type CCRF-CEM)” value was “˜2”.

Take `CC(C)(C)OC(=O)N(CCCCC(C)(C)C(=O)Nc1ccn([C@@H]2CO[C@H](CO)O2)c(=O)n1)Cc1ccccc1` [Compound 125, Benzyl-{5-[1-(2-hydroxy-methyl-[1,3]di-oxolan-4-yl)-2-ox-o-1,2-dihydro-pyri-midin-4-ylcarba-moyl]-5-methyl-hexyl}-carbamic acid tert-butyl ester]: the “Factor (Resistance Factor = Ratio of dCK- on Wild-type CCRF-CEM)” value stood at 97.

Consider `COc1ccc(C(OC[C@H]2OC[C@@H](n3ccc(N)nc3=O)O2)(c2ccccc2)c2ccccc2)cc1` [Compound 134, 4-AMINO-1-{2-[(4-METH- OXY-PHENYL)-DI- PHENYL-METH- OXYMETHYL]-[1,3]DI- OXOLAN-4-YL}-1H-PYRI- MIDIN-2-ONE], for which the “Factor (Resistance Factor = Ratio of dCK- on Wild-type CCRF-CEM)” value came to 3.

Take `O=c1nc(NC2Sc3ccccc3S2)ccn1[C@@H]1CO[C@H](CO)O1` [Compound 136, 4-(BENZO[1,3]DITHIOL-2-YL- AMINO)-1-(2-HYDROXY- METHYL-[1,3]DI- OXOLAN-4-YL)-1H!PYRI- MIDIN-2-ONE]: the “Factor (Resistance Factor = Ratio of dCK- on Wild-type CCRF-CEM)” value was more than 25.

In the case of `COC(OC)(OC[C@H]1OC[C@@H](n2ccc(N)nc2=O)O1)c1ccccc1` [Compound 139, 4-AMINO-1-[2-(DI- METHOXY-PHENYL-METH- OXYMETHYL)-[1,3]DI- OXOLAN-4-YL]-1H-PYRI- MIDIN-2-ONE], the “Factor (Resistance Factor = Ratio of dCK- on Wild-type CCRF-CEM)” value was more than 250.

On to `CN(Cc1ccccc1)C(=O)OC[C@H]1OC[C@@H](n2ccc(N)nc2=O)O1` [Compound 140, BENZYL-METHYL-CARBAMIC ACID 4-(4-AMINO-2-OXO-2H-PYRI- MIDIN-1-YL)-[1,3]DI- OXOLAN-2-YLMETHYL ESTER], for which the “Factor (Resistance Factor = Ratio of dCK- on Wild-type CCRF-CEM)” value is recorded as more than 9.

Turning to `O=c1nc(NC2(c3ccccc3)c3ccccc3Oc3ccccc32)ccn1[C@@H]1CO[C@H](COC2(c3ccccc3)c3ccccc3Oc3ccccc32)O1` [Compound 144, 4-(9-PHENYL-9#H!-XAN- THEN-9-YLAMINO)-1-[2-(9-PHE- NYL-9#H!-XAN- THEN-9-YLOXYMETHYL)-[1,3]DI- OXOLAN-4-YL]-1#H!-PYRI- MIDIN-2-ONE], the “Factor (Resistance Factor = Ratio of dCK- on Wild-type CCRF-CEM)” value stood at 110.
